Several values for one entry are separate records, joined by “and”; a condition that tells them apart may be missing. Equal values may be shown once.
Experiments:
[1] = In vitro skin penetration study, Franz diffusion cells, radiolabelled shampoo; assay type: in vitro ADME, human; conditions: 6-fold diluted shampoo, one minute contact then washed off; 3H label; p<0.05
Protocol: Radiolabelled formulations were prepared using formulations spiked with either ^3H Lysine or ^3H glyceryl trioleate in sunflower seed oil. The total balance of each nutrient was brought up to 0.01% by weight using non-labelled cold material. Excised human full thickness skin was obtained and placed in between the two compartments of Franz diffusion cells. The skin is maintained by filling the receptor chamber of the cell with phosphate buffered saline with the cells placed in a water bath at 37° C. to maintain a surface skin tissue of about 32° C. […] The experimental procedure was as follows:
6-fold diluted shampoo was applied to the skin, left for one minute and washed off. The skin was then separated into 3:
remainder of the epidermis (viable) is then removed using heat separation (identified as the epidermal section)
Each of these layers was analysed for radioactivity and the amount of material penetrated calculated.
Using the in-vitro skin penetration studies, the amount of penetrated material can be quantified as a snap shot in time. From the skin sectioning process, the location of the penetrant at the particular point in time can be measured.

[2] = test system: ceramide levels in stratum corneum; test: Ceramide production in skin: test products applied to the volar forearm for four weeks, stratum corneum tape stripping; assay type: in vivo, human; conditions: responder subset of subjects; 1.0% of each active in ethanol/propylene glycol; twice daily for four weeks on volar forearm
Protocol: Tests on the ability of compositions to increase ceramide production in skin were carried out. The formulation pairs tested were: 1.0% tetraacetyl phytosphingosine (TAPS) vs Vehicle 1.0% TAPS+1.0% juniperic acid+1.0% linoleic acid vs Vehicle. Vehicle=ethanol/propylene glycol (1:1) plus 0.2% by weight Glydant Plus™. […] The studies were conducted as double-blind paired comparisons, with treatment assignments randomized. Subjects first completed a four-day washout phase. During the four-week application phase, test products were applied twice daily to the volar surface of the forearms, using dropper bottles to deliver 0.1 ml of test product to each site; each subject applied a test formulation to one site and the vehicle formulation to the adjacent site. After four weeks of application, samples of stratum corneum were obtained by tape stripping. A subset of subjects who responded to the treatments as expected, with a significant increase in ceramide levels, data from subjects showing increased ceramides was broken out. In each case, responder subjects represented a cross-section of the whole panel; they were not predominantly of one sex or age group. […] Increases were seen across all ceramide types. The increases for ceramides 1 and 2 were dramatically higher than for the other ceramide types.

Row | Compound | skin penetration (skin layers reached) [1] | mean increase in ceramide levels compared with vehicle [2]
1 | NCCCC[C@H](N)C(=O)O [lysine] | penetrate not only into the stratum corneum but also deeper into the epidermis and dermis | 
2 | tetraacetyl phytosphingosine [TAPS] |  | 30% and 25%
